Experimental data taken from patent publication US20260049101A1, “TOPICAL TREATMENT OF SKIN CANCER USING OLIGOPEPTIDES” (BACOBA AG, priority 2022, published 2026).
Numbered stars: 1 amine (or outer) side, 2 acyl side, 3 side chain; on linkers, the order of the positions; unused ones are H or OH. Square brackets hold non-standard residues; d marks the D form. Peptide text beside a SMILES is read from it. * marks the point of attachment. X2 = COc1ccc2nc(C[C@H](N[*:1])C(=O)[*:2])sc2c1; X5 = O=C([C@H](Cc1nc2ccc(F)cc2s1)N[*:1])[*:2]; Abu(4,4,4-F3) = N[C@@H](CC(F)(F)F)C(=O)O; NH(1-CH2NMe2-cBu) = CN(C)CC1(N*)CCC1; Gly(octyl) = CCCCCCCC[C@H](N)C(=O)O; Oxazole4CO(2-Me) = Cc1nc(C(=O)*)co1; Benzoyl(4-F) = O=C(c1ccc(F)cc1)*; hCha = N[C@@H](CCC1CCCCC1)C(=O)O; X6 = CC(C)(CN[*:1])C(=O)[*:2]; β3hL = CC(C)C[C@H](N)CC(=O)O; NHCH2CH2NMe2 = CN(C)CCN*; NHCH2CH2NHMe = CNCCN*; Aib = CC(C)(N)C(=O)O; X3 = CN(CCN*)CC(F)F; βAla = NCCC(=O)O

Tested on: cutaneous squamous cell carcinoma cell line SCC12
Test: In vitro anti-proliferative assay (resazurin) in SCC12
Type: cell-based
Details: SCC12, 72 hours
Source text: Methodology. The cutaneous squamous cell carcinoma cell culture SCC12 was cultivated in keratinocyte-SFM media (KSFM, Cat #17005042, Gibco) supplemented with human recombinant epidermal growth factor 1-53 (EGF 1-53) and bovine pituitary extract (BFE).
Vehicle treated wells were set to 100% viability.

| Compound | IC50 |
| --- | --- |
| CC(C)C[C@H](NC(=O)[C@H](CCC1CCCCC1)NC(=O)[C@@H]1CCCN1C(=O)c1ccc(F)cc1)C(=O)NC(C)(C)C(=O)N[C@@H](CC(C)C)C(=O)N[C@@H](CC(C)C)C(=O)NC(C)(C)C(=O)NC(C)(C)C(=O)NCCC(=O)NCCN(C)CC(F)F [Compound 8342, (2S)-2-[(2S)-4-cyclohexyl-2-{[(2S)-1-(4-fluorobenzoyl)pyrrolidin-2-yl]formamido}butanamido]-N-(1-{[(1S)-1-{[(1S)-1-({1-[(1-{[2-({2-[(2,2-difluoroethyl)(methyl)amino]ethyl}carbamoyl)ethyl]carbamoyl}-1-methylethyl)carbamoyl]-1-methylethyl}carbamoyl)-3-methylbutyl]carbamoyl}-3-methylbutyl]carbamoyl}-1-methylethyl)-4-methylpentanamide] ({Benzoyl(4-F)}-P[hCha]L[Aib]LL[Aib][Aib][βAla]-X3) | 584 nM |
| CC(C)C[C@H](NC(=O)[C@H](CCC1CCCCC1)NC(=O)[C@@H]1CCCN1C(=O)c1ccc(F)cc1)C(=O)NC(C)(C)C(=O)N[C@@H](CC(C)C)C(=O)N[C@@H](CC(C)C)C(=O)NC(C)(C)C(=O)NC(C)(C)C(=O)NCCC(=O)NCCN(C)C [Compound 8343, (2S)-2-[(2S)-4-cyclohexyl-2-{[(2S)-1-(4-fluorobenzoyl)pyrrolidin-2-yl]formamido}butanamido]-N-(1-{[(1S)-1-{[(1S)-1-{[1-({1-[(2-{[2-(dimethylamino)ethyl]carbamoyl}ethyl)carbamoyl]-1-methylethyl}carbamoyl)-1-methylethyl]carbamoyl}-3-methylbutyl]carbamoyl}-3-methylbutyl]carbamoyl}-1-methylethyl)-4-methylpentanamide] ({Benzoyl(4-F)}-P[hCha]L[Aib]LL[Aib][Aib][βAla]-NHCH2CH2NMe2) | 241 nM |
| CCCCCCCC[C@H](NC(=O)[C@@H]1CCCN1C(=O)c1coc(C)n1)C(=O)N[C@@H](CC(C)C)C(=O)NC(C)(C)C(=O)N[C@@H](CC(C)C)C(=O)N[C@@H](CC(C)C)C(=O)NC(C)(C)C(=O)NC(C)(C)C(=O)NCCC(=O)NC1(CN(C)C)CCC1 [Compound 6253, (2S)—N-[(1S)-1-[(1-{[(1S)-1-{[(1S)-1-({1-[(1-{[2-({1-[(dimethylamino)methyl]cyclobutyl}carbamoyl)ethyl]carbamoyl}-1-methylethyl)carbamoyl]-1-methylethyl}carbamoyl)-3-methylbutyl]carbamoyl}-3-methylbutyl]carbamoyl}-1-methylethyl)carbamoyl]-3-methylbutyl]-2-{[(2S)-1-(2-methyl-1,3-oxazole-4-carbonyl)pyrrolidin-2-yl]formamido}decanamide] ({Oxazole4CO(2-Me)}-P[Gly(octyl)]L[Aib]LL[Aib][Aib][βAla]-{NH(1-CH2NMe2-cBu)}) | 140 nM |
| CCCCCCCC[C@H](NC(=O)[C@@H]1CCCN1C(=O)c1coc(C)n1)C(=O)N[C@@H](CC(C)C)C(=O)NC(C)(C)C(=O)N[C@@H](CC(C)C)C(=O)N[C@@H](CC(C)C)C(=O)NC(C)(C)C(=O)NC(C)(C)C(=O)NCCC(=O)NCCNC [Compound 7058, (2S)-2-{[(2S)-1-(2-methyl-1,3-oxazole-4-carbonyl)pyrrolidin-2-yl]formamido}-N-[(1S)-3-methyl-1-[(1-methyl-1-{[(1S)-3-methyl-1-{[(1S)-3-methyl-1-{[1-methyl-1-({1-methyl-1-[(2-{[2-(methylamino)ethyl]carbamoyl}ethyl)carbamoyl]ethyl}carbamoyl)ethyl]carbamoyl}butyl]carbamoyl}butyl]carbamoyl}ethyl)carbamoyl]butyl]decanamide] ({Oxazole4CO(2-Me)}-P[Gly(octyl)]L[Aib]LL[Aib][Aib][βAla]-NHCH2CH2NHMe) | 717 nM |
| CN(C)CC1(NC(=O)CCNC(=O)C(C)(C)NC(=O)C(C)(C)NC(=O)[C@H](CC(F)(F)F)NC(=O)[C@H](CC(F)(F)F)NC(=O)C(C)(C)NC(=O)[C@H](CC(F)(F)F)NC(=O)[C@H](CCC2CCCCC2)NC(=O)[C@@H]2CCCN2C(=O)c2ccc(F)cc2)CCC1 [Compound 21372, (2S)-4-cyclohexyl-N-[(1S)-1-[(1-{[(1S)-1-{[(1S)-1-({1-[(1-{[2-({1-[(dimethylamino)methyl]cyclobutyl}carbamoyl)ethyl]carbamoyl}-1-methylethyl)carbamoyl]-1-methylethyl}carba-moyl)-3,3,3-trifluoropropyl]carbamoyl}-3,3,3-trifluoropropyl]carbamoyl}-1-methylethyl)carbamoyl]-3,3,3-trifluoropropyl]-2-{[(2S)-1-(4-fluorobenzoyl)pyrrolidin-2-yl]formamido}butanamide] ({Benzoyl(4-F)}-P[hCha][Abu(4,4,4-F3)][Aib][Abu(4,4,4-F3)][Abu(4,4,4-F3)][Aib][Aib][βAla]-{NH(1-CH2NMe2-cBu)}) | 442 nM |
| CC(C)C[C@H](NC(=O)[C@H](Cc1nc2ccc(F)cc2s1)NC(=O)[C@@H]1CCCN1C(=O)c1ccc(F)cc1)C(=O)NC(C)(C)C(=O)N[C@@H](CC(C)C)C(=O)N[C@@H](CC(C)C)C(=O)NC(C)(C)C(=O)NC(C)(C)C(=O)NCCC(=O)NC1(CN(C)C)CCC1 [Compound 7848, (2S)—N-(1-{[(1S)-1-{[(1S)-1-({1-[(1-{[2-({1-[(dimethylamino)methyl]cyclobutyl}carbamoyl)ethyl]carbamoyl}-1-methylethyl)carbamoyl]-1-methylethyl}carbamoyl)-3-methylbutyl]carbamoyl}-3-methylbutyl]carbamoyl}-1-methylethyl)-2-[(2S)-3-(6-fluoro-1,3-benzothiazol-2-yl)-2-{[(2S)-1-(4-fluorobenzoyl)pyrrolidin-2-yl]formamido}propanamido]-4-methylpentanamide] ({Benzoyl(4-F)}-P[X5]L[Aib]LL[Aib][Aib][βAla]-{NH(1-CH2NMe2-cBu)}) | 182 nM |
| CC(C)C[C@@H](CC(=O)NC(C)(C)C(=O)NC(C)(C)C(=O)NCCC(=O)NC1(CN(C)C)CCC1)NC(=O)C[C@H](CC(C)C)NC(=O)C(C)(C)NC(=O)C[C@H](CC(C)C)NC(=O)[C@H](CCC1CCCCC1)NC(=O)[C@@H]1CCCN1C(=O)c1ccc(F)cc1 [Compound 21315, (3S)-3-[(2S)-4-cyclohexyl-2-{[(2S)-1-(4-fluorobenzoyl)pyrrolidin-2-yl]formamido}butanamido]-N-(1-{[(2S)-1-{[(2S)-1-({1-[(1-{[2-({1-[(dimethylamino)methyl]cyclobutyl}carbamoyl)ethyl]carbamoyl}-1-methylethyl)carbamoyl]-1-methylethyl}carbamoyl)-4-methylpentan-2-yl]carbamoyl}-4-methylpentan-2-yl]carbamoyl}-1-methylethyl)-5-methylhexanamide] ({Benzoyl(4-F)}-P[hCha][β3hL][Aib][β3hL][β3hL][Aib][Aib][βAla]-{NH(1-CH2NMe2-cBu)}) | 3100 nM |
| CC(C)C[C@H](NC(=O)[C@H](CC(C)C)NC(=O)C(C)(C)NC(=O)[C@H](CC(C)C)NC(=O)[C@H](CCC1CCCCC1)NC(=O)[C@@H]1CCCN1C(=O)c1ccc(F)cc1)C(=O)NC(C)(C)C(=O)NCC(C)(C)C(=O)NCCC(=O)NC1(CN(C)C)CCC1 [Compound 21164, (2S)-2-[(2S)-4-cyclohexyl-2-{[(2S)-1-(4-fluorobenzoyl)pyrrolidin-2-yl]formamido}butan-amido]-N-(1-{[(1S)-1-{[(1S)-1-({1-[(2-{[2-({1-[(dimethylamino)methyl]cyclobutyl}carba-moyl)ethyl]carbamoyl}-2,2-dimethylethyl)carbamoyl]-1-methylethyl}carbamoyl)-3-methylbutyl]carbamoyl}1-3-methylbutyl]carbamoyl}-1-methylethyl)-4-methylpentanamide] ({Benzoyl(4-F)}-P[hCha]L[Aib]LL[Aib][X6][βAla]-{NH(1-CH2NMe2-cBu)}) | 712 nM |
| COc1ccc(-c2ccc(OC[C@H](NC(=O)[C@@H]3CCCN3C(=O)c3ccc(F)cc3)C(=O)N[C@@H](CC(C)C)C(=O)NC(C)(C)C(=O)N[C@@H](CC(C)C)C(=O)N[C@@H](CC(C)C)C(=O)NC(C)(C)C(=O)NC(C)(C)C(=O)NCCC(=O)NC3(CN(C)C)CCC3)cc2)cc1 [Compound 7824, (2S)—N-{1-[(1-{[2-({1-[(dimethylamino)methyl]cyclobutyl}carbamoyl)ethyl]carbamoyl}-1-methylethyl)carbamoyl]-1-methylethyl}-2-[(2S)-2-{2-[(2S)-2-[(2S)-2-{[(2S)-1-(4-fluorobenzoyl)pyrrolidin-2-yl]formamido}-3-({4′-methoxy-[1,1′-biphenyl]-4-yl}oxy)propanamido]-4-methylpentanamido]-2-methylpropanamido}-4-methylpentanamido]-4-methylpentanamide] | 375 nM |
| COc1ccc2nc(C[C@H](NC(=O)[C@@H]3CCCN3C(=O)c3ccc(F)cc3)C(=O)N[C@@H](CC(C)C)C(=O)NC(C)(C)C(=O)N[C@@H](CC(C)C)C(=O)N[C@@H](CC(C)C)C(=O)NC(C)(C)C(=O)NC(C)(C)C(=O)NCCC(=O)NC3(CN(C)C)CCC3)sc2c1 [Compound 7844, (2S)—N-(1-{[(1S)-1-{[(1S)-1-({1-[(1-{[2-({1-[(dimethylamino)methyl]cyclobutyl}carbamoyl)ethyl]carbamoyl}-1-methylethyl)carbamoyl]-1-methylethyl}carbamoyl)-3-methylbutyl]carbamoyl}-3-methylbutyl]carbamoyl}-1-methylethyl)-2-[(2S)-2-{[(2S)-1-(4-fluorobenzoyl)pyrrolidin-2-yl]formamido}-3-(6-methoxy-1,3-benzothiazol-2-yl)propanamido]-4-methylpentanamide] ({Benzoyl(4-F)}-P[X2]L[Aib]LL[Aib][Aib][βAla]-{NH(1-CH2NMe2-cBu)}) | 546 nM |
